Results taken from paper PMC7181960 (ChemMedChem, 2019).
Where two headings read alike, the source gives them in different places.

Key:
Caki-1 [1] = details: read-out: IC50 Caki-1; 72 h incubation; values previously reported, ref [10]; cited from earlier work
IMR-90 = details: read-out: IC50 IMR-90; 72 h incubation; values previously reported, ref [10]; cited from earlier work
[2] = system: Vascular Endothelial Growth Factor (VEGF); test: Immunofluorescent analysis of VEGF level in PC3 cells; type: cell-based, human; details: PC3, IC20 concentration, 24 h incubation
PC3 cells [3] = test: Cell death assay; type: cell-based, human; details: PC3, IC50 concentration, 72 h, flow cytometry
PC3 = test: PrestoBlue Cell Viability assay, 72 h; type: cell-based, human; details: read-out: IC50 PC3, 72 h incubation
Caki-1 [4] = test: PrestoBlue Cell Viability assay, 72 h; details: read-out: IC50 Caki-1, 72 h incubation
PC3 cells [5] = details: previously described, ref [16]; cited from earlier work

Row | SMILES | IC50 (Caki-1 [1]) [µM] | IC50 (IMR-90) [µM] | reduction of VEGF [2] [%] | apoptosis, % of the cell population (PC3 cells [3]) [%] | IC50 (PC3) [µM] | IC50 (Caki-1 [4]) [µM] | reduction of migration (PC3 cells [5]) [%]
1 | CC(=O)OC[C@H]1O[C@@H]([S-])[C@H](OC(C)=O)[C@@H](OC(C)=O)[C@@H]1OC(C)=O.CCP(CC)CC.[Au+] [Auranofin] | 2.8 ± 0.6 | 3.7 ± 0.4 | 50 | 73 | 3.6 ± 0.005 | – | –
2 | N.N.[Cl][Pt][Cl] [Cisplatin] | 23.9 ± 2.4 | 3.9 ± 0.5 | – | – | 6.7 ± 2.8 | – | –
3 | COc1ccc(C[C]2([Ti+2][C]3(Cc4ccc(OC)cc4)C=CC=C3)C=CC=C2)cc1.[Cl-].[Cl-] [Titanocene-Y] | – | – | – | – | 58.1 ± 11.2 | 29.4 ± 4.2 | 19
